Test system: B16 cells
Assay: Melanin content of murine B16 cells by absorbance at 405 nm, related to protein, relative to DMSO control
Assay type: cell-based
Details: for depigmenting activity compared with the positive control hydroquinone: FIG. 2, C9LA+ and C5LA+ given by way of indication
Procedure: The cells are seeded in a 10 cm Petri dish at a density of 7×10^5 per dish and are incubated for 96 hours, with a defined concentration of lichen-derived molecule, which has been purified and solubilized in DMSO. After treatment, the cells are recovered by treatment with trypsin and washed twice with PBS. The number of cells recovered is estimated by counting using a hemocytometer. One and the same fraction is used to determine the melanin content and the protein concentration. The melanin content is determined by the absorbance at 405 nm (VersaMax Microplate Reader, Molecular Devices, USA) of the cell solution after solubilization of the melanin with 1M sodium hydroxide, for 15 min at 80° C. The protein concentration is determined according to the protocol of the “DC Protein Assay” kit developed by Bio-Rad laboratories, USA. For each sample treated, the melanin content is related to the amount of protein and expressed as a percentage relative to the control situation (DMSO solution alone). Each measurement is carried out in triplicate and each experiment is carried out independently a minimum of 3 times (except for the C9LA+ and C5LA+ derivatives given by way of indication).
FIGS. 1 and 2 bring together the results. These figures show the melanin content of the B16 cells treated for 96 h in the presence of a given molecule (FIG. 2), or of a (+)-lichesterinic acid ((+)LA)/(+)-protolichesterinic acid ((+)PLA)/(+)-roccellaric acid ((+)RA) mixture in a 60/25/15 weight ratio (FIG. 1).
Along the x-axis are the molecules tested with their concentrations expressed in μM.
Along the y-axis, the melanin content is expressed as a percentage relative to the control (DMSO alone=concentration of 0.1%).

[1] = 96 h incubation, concentrations of 0.5 to 2 μM, relative to control, FIG. 2

**Q.** How did the “decrease in the melanin level” value [1] turn out when (+)-protolichesterinic acid [PLA+] was run?
**A.** 10% to 20%

**Q.** Which “stimulation of melanin production” value [1] does the source give for `CCCCCCCCCCCCC[C@@H]1OC(=O)C(C)=C1C(=O)O` [LA−, (−)-lichesterinic acid] here?
**A.** +10% to +30%

**Q.** For `CCCCC[C@H]1OC(=O)C(C)=C1C(=O)O` [C5LA+], which “depigmenting activity compared with the positive control hydroquinone” value (96 h incubation) is on record?
**A.** comparable depigmenting activity

**Q.** How did the “depigmenting activity compared with the positive control hydroquinone” value (96 h incubation) turn out when `CCCCCCCCC[C@H]1OC(=O)C(C)=C1C(=O)O` [C9LA+, (+)-3-methyl-5-nonylparaconic acid] was run?
**A.** greater depigmenting activity

**Q.** Which “decrease in the melanin level (depigmenting positive control)” value (96 h incubation, under the same conditions, concentration not given, FIG. 2) does the source give for `Oc1ccc(O)cc1` [hydroquinone] here?
**A.** −20%

**Q.** For `C=C1C(=O)O[C@H](CCCCCCCCCCCCC)[C@H]1C(=O)O` [PLA+, (+)-protolichesterinic acid], which “decrease in the melanin level” value (same conditions, 0.25 μM, individually isolated product, results not given in figures) is on record?
**A.** about −20%

**Q.** With `CCCCCCCCCCCCC[C@H]1OC(=O)[C@@H](C)[C@@H]1C(=O)O` [roccellaric acid, (+)-roccellaric acid] as the molecule, how does the “decrease in the melanin level” value (same conditions, 1 μM, individually isolated product, results not given in figures) read?
**A.** not significant

**Q.** Which “depigmenting activity compared with the positive control hydroquinone” value (96 h incubation) does the source give for `CCCCCCCCCCCCC[C@H]1OC(=O)C(C)=C1C(=O)O` [(+)-lichesterinic acid] here?
**A.** greater depigmenting activity
